Like-named read-outs stand apart in the source and are kept apart here.
What was measured:
[1] = in vivo, cited from earlier work
[2] = PK-01: pharmacokinetics and relative bioavailability of single doses in healthy subjects; type: in vivo, human; details: for AUC(0-inf): human, plasma, inhaled, 40 mg, 40 mg single dose
Protocol: This was a Phase 1, randomized, open-label, single-centre, dose-ranging, cross-over study conducted in a total of 12 healthy adult subjects of 18-45 years of age.
All study subjects received each study treatment in the morning (at 8:00 am, +/−30 minutes) as a single dose treatment. Prior to each dosing day, subjects were admitted to the clinic in the morning for baseline (pre-dose) assessments. Subjects were required to remain in the clinic for 12 h after study drug administration on each dosing day. Treatment Visits were separated by a washout period of 2 to 5 days.
The duration of the study was one day.
Urine DSCG levels were measured for total DSCG excretion in the urine, and the bioavailability of the DSCG was calculated from the measured levels.
Pharmacokinetic parameters and plasma concentrations are listed and summarized. The summary statistics are presented as the geometric mean, arithmetic mean, arithmetic standard deviation (SD), min, median, max and n. The geometric statistics are not presented for Tmax. Analysis of variance (ANOVA) including terms for subject and treatment are used to calculate point estimates, and confidence intervals (CI) for treatment differences with respect to PK parameters (90% CI) are calculated.

[3] = Pharmacokinetics of cromolyn sodium in plasma and lung of male BALB/c mice after a single intraperitoneal injection; type: in vivo; details: single IP injection, 10 mg/kg and 100 mg/kg
Protocol: BALB/c male mice, weighing 22±2 g, were provided by BioLasco Taiwan. All animals were maintained in a well-controlled temperature (20-24° C.) and humidity (30%-70%) environment with 12 hours light/dark cycles. The mice were given free access to a standard lab diet [MFG (Oriental Yeast Co., Ltd., Japan)] and autoclaved tap water.
The solution was administered to the mice by IP injection at concentrations of 10 mg/kg and 100 mg/kg. The dosing volume for both dose strengths was 5 mL/kg.
The mice were sedated under general inhalant anesthesia (3% isoflurane) for blood collection by cardiac puncture. […]
The plasma samples were processed using acetonitrile (ACN) precipitation and analyzed by LC-MS/MS. […] The processed plasma samples were stored at −70° C. until receiving LC-MS/MS analysis, at which time peak areas were recorded, and the concentrations of the test substance in the unknown plasma samples were determined using the respective calibration curve. The reportable linear range of the assay was determined, along with the lower limit of quantitation (LLQ).
Each lung was homogenized in 1.5 mL cold phosphate-buffered saline (PBS) at pH 7.4 for 10 seconds on ice. The lung homogenate was centrifuged at 5,400×g for 15 minutes at 4° C., and the supernatant was subsequently processed using ACN precipitation and analyzed by LC-MS/MS. […]

Q: Which oral bioavailability ([1]; listed as cromolyn) does the source give for `O=C([O-])c1cc(=O)c2c(OCC(O)COc3cccc4oc(C(=O)O)cc(=O)c34)cccc2o1.[Na+]` [cromolyn sodium, disodium 5,5′-(2-hydroxypropane-1,3-diyl)bis(oxy)bis(4-oxo-4H-chromene-2-carboxylate)] here?
A: Its oral bioavailability is “about 1%”.

Q: And the oral bioavailability [1]?
A: Its oral bioavailability is about 1%.

Q: And the AUC(0-inf) ([2]; eFlow 30 L)?
A: The AUC(0-inf) was 338 ng·h/mL.

Q: What about the AUC(0-inf) ([2]; eFlow 40 L) of the same molecule?
A: The AUC(0-inf) was 212 ng·h/mL.

Q: And the “lung deposition with the 30 L device compared with the 40 L device, indicated by AUC” value ([2]; same dose (40 mg))?
A: Its value is “surprisingly higher”.

Q: What about the “exposure of cromolyn sodium in the plasma and lungs” value [3] of the same molecule?
A: Its value is “Significant exposure”.

From patent US10561635B2, “Cromolyn compositions for treatment of pulmonary fibrosis” (Respivant Sciences, GmbH, priority 2016, dated 2020)
